Results: US8829007B2 (priority 2009, dated 2014)
Read-outs that look alike come from different tables or passages of the source.

Experiments:
[1] = tested on: A/PR/8/34 influenza virus; test: microbe, parasite or virus in culture; assay type: cell-based; settings: read-out: EC50 (mean all)
[2] = tested on: influenza A virus (A/PR/8/34); test: microbe, parasite or virus in culture; assay type: cell-based; settings: read-out: IC50 (mean all)
[3] = Influenza A virus, PR/8, MDCK, MDCK cells infected with A/PR/8/34, bDNA viral RNA
[4] = Influenza A virus, PR/8, MDCK, MDCK cells infected with A/PR/8/34, cell protection (CPE)

Row | SMILES | EC50 [1, 3] [µM] | IC50 [2, 4] [µM] | EC50 [1] [µM] | IC50 [2] [µM]
1 | O=C(c1ccc2c(c1)OCC2)N1CCC[C@H](CNc2nc(-c3c[nH]c4ncc(Cl)cc34)ncc2F)C1 [Compound 145, (R)-(3-((2-(5-chloro-1H-pyrrolo[2,3-b]pyridin-3-yl)-5-fluoropyrimidin-4-ylamino)methyl)piperidin-1-yl)(2,3-dihydrobenzofuran-6-yl)methanone] | < 5 | < 5 | – | –
2 | O=C(c1ccccc1C(F)(F)F)N1CCC[C@H](CNc2nc(-c3c[nH]c4ncc(Cl)cc34)ncc2F)C1 [Compound 146, (R)-(3-((2-(5-chloro-1H-pyrrolo[2,3-b]pyridin-3-yl)-5-fluoropyrimidin-4-ylamino)methyl)piperidin-1-yl)(2-(trifluoromethyl)phenyl)methanone] | < 5 | < 5 | – | –
3 | O=C(c1ccc(Cl)cc1Cl)N1CCC[C@H](CNc2nc(-c3c[nH]c4ncc(Cl)cc34)ncc2F)C1 [Compound 147, (R)-(3-((2-(5-chloro-1H-pyrrolo[2,3-b]pyridin-3-yl)-5-fluoropyrimidin-4-ylamino)methyl)piperidin-1-yl)(2,4-dichlorophenyl)methanone] | < 5 | < 5 | – | –
4 | COc1c(C)cccc1C(=O)N1CCC[C@H](CNc2nc(-c3c[nH]c4ncc(Cl)cc34)ncc2F)C1 [Compound 148, (R)-(3-((2-(5-chloro-1H-pyrrolo[2,3-b]pyridin-3-yl)-5-fluoropyrimidin-4-ylamino)methyl)piperidin-1-yl)(2-methoxy-3-methylphenyl)methanone] | < 5 | < 5 | – | –
5 | O=C(c1cc(F)ccc1F)N1CCC[C@H](CNc2nc(-c3c[nH]c4ncc(Cl)cc34)ncc2F)C1 [Compound 151] | < 5 | < 5 | – | –
6 | O=C(c1ccc(F)cc1F)N1CCC[C@H](CNc2nc(-c3c[nH]c4ncc(Cl)cc34)ncc2F)C1 [Compound 152, (R)-(3-((2-(5-chloro-1H-pyrrolo[2,3-b]pyridin-3-yl)-5-fluoropyrimidin-4-ylamino)methyl)piperidin-1-yl)(2,4-difluorophenyl)methanone] | < 5 | < 5 | – | –
7 | COc1ccc(C(=O)N2CCC[C@H](CNc3nc(-c4c[nH]c5ncc(Cl)cc45)ncc3F)C2)c(OC)c1 [Compound 154, (R)-(3-((2-(5-chloro-1H-pyrrolo[2,3-b]pyridin-3-yl)-5-fluoropyrimidin-4-ylamino)methyl)piperidin-1-yl)(2,4-dimethoxyphenyl)methanone] | < 5 | 5 to 20 | – | –
8 | Cc1cccc(C(=O)N2CCC[C@H](CNc3nc(-c4c[nH]c5ncc(Cl)cc45)ncc3F)C2)c1C [Compound 157, (R)-(3-((2-(5-chloro-1H-pyrrolo[2,3-b]pyridin-3-yl)-5-fluoropyrimidin-4-ylamino)methyl)piperidin-1-yl)(2,3-dimethylphenyl)methanone] | < 5 | < 5 | – | –
9 | COCCOC(=O)N1CCCC[C@H]1CNc1nc(-c2c[nH]c3ncc(Cl)cc23)ncc1F [Compound 161, (S)-2-methoxyethyl 2-((2-(5-chloro-1H-pyrrolo[2,3-b]pyridin-3-yl)-5-fluoropyrimidin-4-ylamino)methyl)piperidine-1-carboxylate] | < 5 | > 20 | – | –
10 | O=C(OCCCl)N1CCCC[C@H]1CNc1nc(-c2c[nH]c3ncc(Cl)cc23)ncc1F [Compound 163, (S)-2-chloroethyl 2-((2-(5-chloro-1H-pyrrolo[2,3-b]pyridin-3-yl)-5-fluoropyrimidin-4-ylamino)methyl)piperidine-1-carboxylate] | < 5 | 5 to 20 | – | –
11 | C#CCOC(=O)N1CCCC[C@H]1CNc1nc(-c2c[nH]c3ncc(Cl)cc23)ncc1F [Compound 164, (S)-prop-2-ynyl 2-((2-(5-chloro-1H-pyrrolo[2,3-b]pyridin-3-yl)-5-fluoropyrimidin-4-ylamino)methyl)piperidine-1-carboxylate] | < 5 | > 20 | – | –
12 | COC(=O)N1CCCC[C@H]1CNc1nc(-c2c[nH]c3ncc(Cl)cc23)ncc1F [Compound 166, (S)-methyl 2-((2-(5-chloro-1H-pyrrolo[2,3-b]pyridin-3-yl)-5-fluoropyrimidin-4-ylamino)methyl)piperidine-1-carboxylate] | < 5 | 5 to 20 | – | –
13 | CCOC(=O)N1CCCC[C@H]1CNc1nc(-c2c[nH]c3ncc(Cl)cc23)ncc1F [Compound 171, (S)-ethyl 2-((2-(5-chloro-1H-pyrrolo[2,3-b]pyridin-3-yl)-5-fluoropyrimidin-4-ylamino)methyl)piperidine-1-carboxylate] | 5 to 10 | > 20 | – | –
14 | CC(=O)N1CCCC[C@@H]1CNc1nc(-c2c[nH]c3ncc(Cl)cc23)ncc1F [Compound 179, (R)-1-(2-((2-(5-chloro-1H-pyrrolo[2,3-b]pyridin-3-yl)-5-fluoropyrimidin-4-ylamino)methyl)piperidin-1-yl)ethanone] | < 5 | < 5 | – | –
15 | O=C(OCCF)N1CCCC[C@@H]1CNc1nc(-c2c[nH]c3ncc(Cl)cc23)ncc1F [Compound 180, (R)-2-fluoroethyl 2-((2-(5-chloro-1H-pyrrolo[2,3-b]pyridin-3-yl)-5-fluoropyrimidin-4-ylamino)methyl)piperidine-1-carboxylate] | < 5 | < 5 | – | –
16 | O=C(c1nccs1)N1CCCC(CNc2nc(-c3c[nH]c4ncc(Cl)cc34)ncc2F)C1 (centres unmarked) [Compound 186] | < 5 | < 5 | – | –
17 | CCCNC(=O)N1CCCC(Nc2nc(-c3c[nH]c4ncc(Cl)cc34)ncc2F)C1 (centres unmarked) [Compound 196] | – | – | < 5 | < 5
18 | CCC(=O)N1CCCC[C@@H]1CNc1nc(-c2c[nH]c3ncc(Cl)cc23)ncc1F [Compound 208, (R)-1-(2-((2-(5-chloro-1H-pyrrolo[2,3-b]pyridin-3-yl)-5-fluoropyrimidin-4-ylamino)methyl)piperidin-1-yl)propan-1-one] | < 5 | < 5 | – | –
19 | O=C(c1ccc(F)cc1)N1CCCC[C@@H]1CNc1nc(-c2c[nH]c3ncc(Cl)cc23)ncc1F [Compound 209, (R)-(2-((2-(5-chloro-1H-pyrrolo[2,3-b]pyridin-3-yl)-5-fluoropyrimidin-4-ylamino)methyl)piperidin-1-yl)(4-fluorophenyl)methanone] | < 5 | < 5 | – | –
20 | O=C(c1cccc(C(F)(F)F)c1)N1CCCC[C@@H]1CNc1nc(-c2c[nH]c3ncc(Cl)cc23)ncc1F [Compound 210, (R)-(2-((2-(5-chloro-1H-pyrrolo[2,3-b]pyridin-3-yl)-5-fluoropyrimidin-4-ylamino)methyl)piperidin-1-yl)(3-(trifluoromethyl)phenyl)methanone] | 5 to 10 | > 20 | – | –
21 | C=CCCC(=O)N1CCCC[C@@H]1CNc1nc(-c2c[nH]c3ncc(Cl)cc23)ncc1F [Compound 279, (R)-1-(2-((2-(5-chloro-1H-pyrrolo[2,3-b]pyridin-3-yl)-5-fluoropyrimidin-4-ylamino)methyl)piperidin-1-yl)pent-4-en-1-one] | < 5 | < 5 | – | –
22 | O=C(CC(F)(F)F)N1CCCC[C@@H]1CNc1nc(-c2c[nH]c3ncc(Cl)cc23)ncc1F [Compound 280, (R)-1-(2-((2-(5-chloro-1H-pyrrolo[2,3-b]pyridin-3-yl)-5-fluoropyrimidin-4-ylamino)methyl)piperidin-1-yl)-3,3,3-trifluoropropan-1-one] | < 5 | < 5 | – | –
